Common to all, as to format: cell-based
The test system of assay [1] is mIDH1 TF1 cells. As to the kind of experiment: Metabolic activity (ATP fold-change) and rescue in mIDH1 TF1 cells. The following applies: for drop in metabolic activity / rescue of brequinar-induced drop in metabolic activity: Brequinar 2 μM; for drop in metabolic activity: ATP fold-change day 3 over day 0. The protocol:
(§1) TF1-pLVX (wildtype) cells were pLVX plated at 20 k/ml, 90 μl/well while TF1/R132H27 (mIDH1) and TF1/R140Q11 (mIDH2) cells were plated at 80 k/ml, 90 μl/well in RPMI, 10% FBS, G418 and GM-CSF. Test compound was added on day 0 and CellTiter-Glo, assay (Promega) was performed on day 3/4 and 7. Medium was not changed during 7-day culture.
(§2) Data was expressed as ATP fold-change: day 3 over day 0.

In assay [2] the test system is mIDH2 TF1 cells. Description: Metabolic activity (ATP fold-change) and rescue in mIDH2 TF1 cells. The following applies: for drop in metabolic activity / rescue of brequinar-induced drop in metabolic activity: Brequinar 2 μM; for drop in metabolic activity: ATP fold-change day 3 over day 0. The protocol:
as §1, §2

For assay [3], the system named is TF1 cells. As to the kind of experiment: Proliferation assay, cell line not specified (IC90 at day 7). The following applies: Homo sapiens, TF-1, 168 h, cell line not stated. The protocol:
as §1, §2

The subject of assay [4] is TF1/R140Q11 (mIDH2) cells. Description: Proliferation assay (CellTiter-Glo) of mutant IDH2 TF1 cells. The following applies: Homo sapiens, TF-1, mutant IDH2 (R140Q) TF1 cells, read-out: IC50, inhibition of proliferation. The protocol: (§3) Proliferation Assay of Wild Type and Mutant IDH Cell Lines
as §1
Background: In ATP-based viability assays light output follows the ATP content of the culture.

Assay [5] relates to TF1/R132H27 (mIDH1) cells. Description: Proliferation assay (CellTiter-Glo) of mutant IDH1 TF1 cells. The following applies: Homo sapiens, TF-1, mutant IDH1 (R132H) TF1 cells, read-out: IC50, inhibition of proliferation. The protocol: as §3, §1
The test system of assay [6] is TF1 cells. Description: Metabolic activity (ATP fold-change) in methotrexate treated TF1 cells. The following applies: FIG. 3. The text has this:
Metabolic activity was rescued in mIDH1 and mIDH2 TF1 cells with 3-day folinic acid supplement.

Where [7] appears, read: 3-day folinic acid supplement, methotrexate treated, FIG. 3.
Setting [8] is: uridine 8 μM, 3-day supplement, FIG. 2A.

The structures appear in SMILES notation.

On to `Nc1nc(=O)c2c([nH]1)NCC(CNc1ccc(C(=O)N[C@@H](CCC(=O)O)C(=O)O)cc1)N2C=O` (mixture of isomers) [folinic acid], for which the “rescue of methotrexate-induced drop in metabolic activity” value in assay [1] (setting [7]) and in assay [2] (setting [7]) was “rescued” in each case.

The term IC90 denotes the point of the concentration-response curve where the effect stands at 90%. Low readings indicate greater potency, high ones weaker potency. In assay [3], `Cc1c(-c2ccc(-c3ccccc3F)cc2)nc2ccc(F)cc2c1C(=O)O` [Brequinar, brequinar] displayed an IC90 of around 2000 nM. The IC50 in assay [4] stood at 1600 nM; in assay [5], 1300 nM. Further, the “drop in metabolic activity” value in assay [1] (FIG. 2A) is listed as 73%; in assay [1] (FIG. 2B), 77%; in assay [2] (FIG. 2A) it was 52%; in assay [2] (FIG. 2B), 47%.

`CN(Cc1cnc2nc(N)nc(N)c2n1)c1ccc(C(=O)N[C@@H](CCC(=O)O)C(=O)O)cc1` [methotrexate]: in assay [6], the “metabolic activity expressed as ATP fold-change (day 3 over day 0)” value was “drop in metabolic activity”.

For the compound `O=c1ccn([C@@H]2O[C@H](CO)[C@@H](O)[C@H]2O)c(=O)[nH]1` [uridine], the “rescue of brequinar-induced drop in metabolic activity” value in assay [1] (setting [8]) is recorded as “rescued”; in assay [1] (uridine 1,000 μM, FIG. 2B), “rescued”; in assay [2] (setting [8]), “rescued”; in assay [2] (uridine 1,000 μM, FIG. 2B), “rescued”.
